In brackets after ≈: the same amount, converted by molar mass.
Assays:
HRV50(A2#58) = assay: Anti-rhinovirus spectrum (MTT), HRV50; type: cell-based, human rhinovirus; set-up: Anti-Rhinovirus activity, HRV50: unit not given here; details: HRV50
HRV5 = assay: Anti-rhinovirus spectrum (MTT), HRV5; type: cell-based, human rhinovirus; set-up: Anti-Rhinovirus activity, HRV5: unit not given here; details: HRV5
HRV29 (5582) = assay: Anti-rhinovirus spectrum (MTT), HRV29; type: cell-based, human rhinovirus; set-up: Anti-Rhinovirus activity, HRV29: unit not given here; details: HRV29
[1] = tested on: Poliovirus type 1 (Polio 1, Sabin); assay: microbe, parasite or virus in culture; type: cell-based
[2] = tested on: echovirus type 11 (Echo 11, Gregory); assay: In vitro anti-picornavirus activity (MTT), Echo 11; type: cell-based; details: HeLa-S3 cells, MTT method, 37° C.
HRV32 (363) = assay: Anti-rhinovirus spectrum (MTT), HRV32; type: cell-based, human rhinovirus; set-up: Anti-Rhinovirus activity, HRV32: unit not given here; details: HRV32
[3] = tested on: coxsackievirus type B4 (CB4,JVB); assay: In vitro anti-picornavirus activity (MTT), CB4; type: cell-based; details: HeLa cells, MTT method, 37° C.
HeLa cells = assay: Cytotoxicity (MTT, without virus), HeLa; details: HeLa, no virus, incubated for 4 days
HeLa-S3 cells = assay: Cytotoxicity (MTT, without virus), HeLa-S3; details: HeLa-S3, no virus, incubated for 4 days
HRV1A (E28) = assay: Anti-rhinovirus activity (MTT), HRV1A; type: cell-based, human rhinovirus; set-up: Anti-Rhinovirus activity, HRV1A: unit not given here; details: for IC50 HRV 1A: HeLa (Ohio strain) cells, MTT method, 33° C.
[4] = tested on: human rhinovirus type 1B (HRV 1B, B632); assay: Anti-rhinovirus activity (MTT), HRV1B; type: cell-based; set-up: Anti-Rhinovirus activity, HRV1B: unit not given here; details: for IC50 HRV1B: HeLa (Ohio strain) cells, MTT method, 33° C.
HRV10 (204-CV14) = assay: Anti-rhinovirus spectrum (MTT), HRV10; type: cell-based, human rhinovirus; set-up: Anti-Rhinovirus activity, HRV10: unit not given here; details: HRV10
HRV61 (6669-CV39) = assay: Anti-rhinovirus spectrum (MTT), HRV61; type: cell-based, human rhinovirus; set-up: Anti-Rhinovirus activity, HRV61: unit not given here; details: HRV61
HRV39 (209) = assay: Anti-rhinovirus spectrum (MTT), HRV39; type: cell-based, human rhinovirus; set-up: Anti-Rhinovirus activity, HRV39: unit not given here; details: HRV39
HRV33 (1200) = assay: Anti-rhinovirus spectrum (MTT), HRV33; type: cell-based, human rhinovirus; set-up: Anti-Rhinovirus activity, HRV33: unit not given here; details: HRV33
HRV41 (56110) = assay: Anti-rhinovirus spectrum (MTT), HRV41; type: cell-based, human rhinovirus; set-up: Anti-Rhinovirus activity, HRV41: unit not given here; details: HRV41
HRV8(MRH) = assay: Anti-rhinovirus spectrum (MTT), HRV8; type: cell-based, human rhinovirus; set-up: Anti-Rhinovirus activity, HRV8: unit not given here; details: HRV8
HRV14 (1059) = assay: Anti-rhinovirus activity (MTT), HRV14; type: cell-based, human rhinovirus; set-up: Anti-Rhinovirus activity, HRV14: unit not given here; details: for IC50 HRV 14: HeLa (Ohio strain) cells, MTT method, 33° C.
[5] = tested on: coxsackievirus type A7 (CA7); assay: In vitro anti-picornavirus activity (MTT), CA7; type: cell-based; details: HeLa-S3 cells, MTT method, 37° C.
HRV3(FEB) = assay: Anti-rhinovirus spectrum (MTT), HRV3; type: cell-based, human rhinovirus; set-up: Anti-Rhinovirus activity, HRV3: unit not given here; details: HRV3
HRV13 (353) = assay: Anti-rhinovirus spectrum (MTT), HRV13; type: cell-based, human rhinovirus; set-up: Anti-Rhinovirus activity, HRV13: unit not given here; details: HRV13
HRV 89 (41617-Gallo) = assay: Anti-rhinovirus activity (MTT), HRV89; type: cell-based, human rhinovirus; set-up: Anti-Rhinovirus activity, HRV89: unit not given here; details: for IC50 HRV89: HeLa (Ohio strain) cells, MTT method, 33° C.
HRV31 (41F) = assay: Anti-rhinovirus spectrum (MTT), HRV31; type: cell-based, human rhinovirus; set-up: Anti-Rhinovirus activity, HRV31: unit not given here; details: HRV31
HRV 2 (HGP) = assay: Anti-rhinovirus activity (MTT), HRV2; type: cell-based, human rhinovirus; set-up: Anti-Rhinovirus activity, HRV2: unit not given here; details: for IC50 HRV2: HeLa (Ohio strain) cells, MTT method, 33° C.
HRV21 (47) = assay: Anti-rhinovirus spectrum (MTT), HRV21; type: cell-based, human rhinovirus; set-up: Anti-Rhinovirus activity, HRV21: unit not given here; details: HRV21
HRV36 (342H) = assay: Anti-rhinovirus spectrum (MTT), HRV36; type: cell-based, human rhinovirus; set-up: Anti-Rhinovirus activity, HRV36: unit not given here; details: HRV36
HRV16 (11757) = assay: Anti-rhinovirus spectrum (MTT), HRV16; type: cell-based, human rhinovirus; set-up: Anti-Rhinovirus activity, HRV16: unit not given here; details: HRV16
[6] = tested on: clinical isolate (89229T); assay: microbe, parasite or virus in culture; type: cell-based, human rhinovirus; set-up: Anti-Rhinovirus activity, Clinical isolated strain: unit not given here; details: Clinical isolated strain
HeLa (Ohio strain)cells = assay: Cytotoxicity (MTT, without virus), HeLa(Ohio); details: HeLa(Ohio), no virus, incubated for 4 days

CCn1c2c(c(=O)c3cc(CC(C)C)ccc31)Cc1cc(OC)ccc1-2 [Compound B12]
Anti-Rhinovirus activity, HRV50 (HRV50(A2#58)): 0.12 | Anti-Rhinovirus activity, HRV5 (HRV5): 0.29 | Anti-Rhinovirus activity, HRV29 (HRV29 (5582)): 0.44 | IC50 Polio 1 [1]: 0.39 µg/mL (≈ 1.12 µM) | IC50 Echo 11 [2]: 0.19 µg/mL (≈ 0.547 µM) | Anti-Rhinovirus activity, HRV32 (HRV32 (363)): 0.33 | IC50 CB4 [3]: 0.63 µg/mL (≈ 1.81 µM) | Cytotoxicity CC50 HeLa (HeLa cells): >2.5 µg/mL | Cytotoxicity CC50 HeLa-S3 (HeLa-S3 cells): >2.5 µg/mL | Anti-Rhinovirus activity, HRV1A (HRV1A (E28)): >2.5 | IC50 HRV 1A (HRV1A (E28)): >2.5 µg/mL | Anti-Rhinovirus activity, HRV1B [4]: 0.25 | IC50 HRV1B [4]: 0.25 µg/mL (≈ 0.72 µM) | Anti-Rhinovirus activity, HRV10 (HRV10 (204-CV14)): 0.43 | Anti-Rhinovirus activity, HRV61 (HRV61 (6669-CV39)): 0.31 | Anti-Rhinovirus activity, HRV39 (HRV39 (209)): 0.38 | Anti-Rhinovirus activity, HRV33 (HRV33 (1200)): 0.12 | Anti-Rhinovirus activity, HRV41 (HRV41 (56110)): 0.11 | Anti-Rhinovirus activity, HRV8 (HRV8(MRH)): 0.32 | Anti-Rhinovirus activity, HRV14 (HRV14 (1059)): 0.43 | IC50 HRV 14 (HRV14 (1059)): 0.43 µg/mL (≈ 1.24 µM) | IC50 CA7 [5]: 2.0 µg/mL (≈ 5.76 µM) | Anti-Rhinovirus activity, HRV3 (HRV3(FEB)): 0.52 | Anti-Rhinovirus activity, HRV13 (HRV13 (353)): 0.091 | Anti-Rhinovirus activity, HRV89 (HRV 89 (41617-Gallo)): 0.31 | IC50 HRV89 (HRV 89 (41617-Gallo)): 0.31 µg/mL (≈ 0.892 µM) | Anti-Rhinovirus activity, HRV31 (HRV31 (41F)): 0.11 | Anti-Rhinovirus activity, HRV2 (HRV 2 (HGP)): 0.31 | IC50 HRV2 (HRV 2 (HGP)): 0.31 µg/mL (≈ 0.892 µM) | Anti-Rhinovirus activity, HRV21 (HRV21 (47)): 0.17 | Anti-Rhinovirus activity, HRV36 (HRV36 (342H)): 0.21 | Anti-Rhinovirus activity, HRV16 (HRV16 (11757)): 1.4 | Anti-Rhinovirus activity, Clinical isolated strain [6]: 0.46 | Cytotoxicity CC50 HeLa(Ohio) (HeLa (Ohio strain)cells): >2.5 µg/mL

CCn1c2c(c(=O)c3cc(C(C)C)ccc31)Cc1cc(OC)c(OC)cc1-2 [Compound B22]
Anti-Rhinovirus activity, HRV50 (HRV50(A2#58)): 0.17 | Anti-Rhinovirus activity, HRV5 (HRV5): 0.43 | Anti-Rhinovirus activity, HRV29 (HRV29 (5582)): 0.56 | IC50 Polio 1 [1]: 0.54 µg/mL (≈ 1.49 µM) | IC50 Echo 11 [2]: 0.39 µg/mL (≈ 1.07 µM) | Anti-Rhinovirus activity, HRV32 (HRV32 (363)): 0.19 | IC50 CB4 [3]: 1.3 µg/mL (≈ 3.58 µM) | Cytotoxicity CC50 HeLa (HeLa cells): >10 µg/mL | Cytotoxicity CC50 HeLa-S3 (HeLa-S3 cells): >10 µg/mL | Anti-Rhinovirus activity, HRV1A (HRV1A (E28)): >5.9 | IC50 HRV 1A (HRV1A (E28)): >5.9 µg/mL | Anti-Rhinovirus activity, HRV1B [4]: 0.44 | IC50 HRV1B [4]: 0.44 µg/mL (≈ 1.21 µM) | Anti-Rhinovirus activity, HRV10 (HRV10 (204-CV14)): 0.53 | Anti-Rhinovirus activity, HRV61 (HRV61 (6669-CV39)): 0.34 | Anti-Rhinovirus activity, HRV39 (HRV39 (209)): 0.46 | Anti-Rhinovirus activity, HRV33 (HRV33 (1200)): 0.16 | Anti-Rhinovirus activity, HRV41 (HRV41 (56110)): 0.14 | Anti-Rhinovirus activity, HRV8 (HRV8(MRH)): 0.46 | Anti-Rhinovirus activity, HRV14 (HRV14 (1059)): 0.86 | IC50 HRV 14 (HRV14 (1059)): 0.86 µg/mL (≈ 2.37 µM) | IC50 CA7 [5]: 1.9 µg/mL (≈ 5.23 µM) | Anti-Rhinovirus activity, HRV3 (HRV3(FEB)): 0.97 | Anti-Rhinovirus activity, HRV13 (HRV13 (353)): 0.13 | Anti-Rhinovirus activity, HRV89 (HRV 89 (41617-Gallo)): 0.36 | IC50 HRV89 (HRV 89 (41617-Gallo)): 0.36 µg/mL (≈ 0.99 µM) | Anti-Rhinovirus activity, HRV31 (HRV31 (41F)): 0.14 | Anti-Rhinovirus activity, HRV2 (HRV 2 (HGP)): 0.50 | IC50 HRV2 (HRV 2 (HGP)): 0.55 µg/mL (≈ 1.51 µM) | Anti-Rhinovirus activity, HRV21 (HRV21 (47)): 0.18 | Anti-Rhinovirus activity, HRV36 (HRV36 (342H)): 0.25 | Anti-Rhinovirus activity, HRV16 (HRV16 (11757)): 1.2 | Anti-Rhinovirus activity, Clinical isolated strain [6]: 0.43 | Cytotoxicity CC50 HeLa(Ohio) (HeLa (Ohio strain)cells): >10 µg/mL

Reference: US7109338B2, “1,2-disubstituted 1,4-dihydro-4-oxoquinoline compounds” (priority 1999, dated 2006)
